Reference: ChEMBL document CHEMBL1201862, “PubChem BioAssay data set” (2004)
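Each compound was tested at five concentrations against cells in 96-well plates for 48 hours. The concentration for 50% growth inhibition is given as GI50.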 Active and inactive are the calls of the source. Rule as the data show it: active = GI50 up to about 1.1 µM and inactive = higher.

Legend:
Assay in all cases: NCI tumour cell line growth inhibition, 48 h
NCI-H23 = test system: NCI-H23
U-251 = test system: U-251
NCI-H226 = test system: NCI-H226
SW-620 = test system: SW-620
SNB-19 = test system: SNB-19
SF-539 = test system: SF-539
LOX IMVI = test system: LOX IMVI
UACC-62 = test system: UACC-62
IGROV-1 = test system: IGROV-1
HCT-116 = test system: HCT-116
Malme-3M = test system: Malme-3M
KM12 = test system: KM12
ACHN = test system: ACHN
UACC-257 = test system: UACC-257
OVCAR-8 = test system: OVCAR-8
UO-31 = test system: UO-31
NCI-H522 = test system: NCI-H522
TK-10 = test system: TK-10
HCC 2998 = test system: HCC 2998

Row | Compound | GI50 (NCI-H23) | GI50 (U-251) | GI50 (NCI-H226) | GI50 (SW-620) | GI50 (SNB-19) | GI50 (SF-539) | GI50 (LOX IMVI) | GI50 (UACC-62) | GI50 (IGROV-1) | GI50 (HCT-116) | GI50 (Malme-3M) | GI50 (KM12) | GI50 (ACHN) | GI50 (UACC-257) | GI50 (OVCAR-8) | GI50 (UO-31) | GI50 (NCI-H522) | GI50 (TK-10) | GI50 (HCC 2998)
1 | O=c1cccccc1NCCNc1cccccc1=O | > 100 µM (inactive) | > 100 µM (inactive) | > 100 µM (inactive) | > 100 µM (inactive) | > 100 µM (inactive) | > 100 µM (inactive) | > 100 µM (inactive) | > 100 µM (inactive) | > 100 µM (inactive) | > 100 µM (inactive) | 13.9 µM (inactive) | > 100 µM (inactive) | > 100 µM (inactive) | > 100 µM (inactive) | > 100 µM (inactive) | > 100 µM (inactive) | > 100 µM (inactive) | – | –
2 | O=C(NCCNCCO)N/N=C/c1ccccc1 | > 100 µM (inactive) | > 100 µM (inactive) | > 100 µM (inactive) | > 100 µM (inactive) | > 100 µM (inactive) | > 100 µM (inactive) | > 100 µM (inactive) | > 100 µM (inactive) | > 100 µM (inactive) | > 100 µM (inactive) | > 100 µM (inactive) | > 100 µM (inactive) | > 100 µM (inactive) | > 100 µM (inactive) | > 100 µM (inactive) | – | > 100 µM (inactive) | > 100 µM (inactive) | –
3 | Cc1c(O)c(O)cc[n+]1C1OC(CO)C(O)C1O (centres undefined) | > 100 µM (inactive) | > 100 µM (inactive) | > 100 µM (inactive) | > 100 µM (inactive) | > 100 µM (inactive) | – | > 100 µM (inactive) | > 100 µM (inactive) | > 100 µM (inactive) | > 100 µM (inactive) | > 100 µM (inactive) | > 100 µM (inactive) | > 100 µM (inactive) | > 100 µM (inactive) | > 100 µM (inactive) | > 100 µM (inactive) | > 100 µM (inactive) | > 100 µM (inactive) | > 100 µM (inactive)
4 | Nc1nc(N)c(-c2ccccc2)c(CCC(=O)Nc2ccc(Cl)cc2)n1 | > 100 µM (inactive) | > 100 µM (inactive) | > 100 µM (inactive) | > 100 µM (inactive) | > 100 µM (inactive) | > 100 µM (inactive) | – | > 100 µM (inactive) | > 100 µM (inactive) | > 100 µM (inactive) | > 100 µM (inactive) | > 100 µM (inactive) | > 100 µM (inactive) | > 100 µM (inactive) | > 100 µM (inactive) | > 100 µM (inactive) | > 100 µM (inactive) | > 100 µM (inactive) | > 100 µM (inactive)
5 | CCC12C=CCN3CCC4(c5cc(C6(C(=O)OC)CCCCCc7c6[nH]c6ccccc76)c(OC)cc5N(C)C4C(O)(C(=O)OC)C1OC(C)=O)C32 (centres undefined) | – | 2.08 µM (inactive) | 2.64 µM (inactive) | 3.3 µM (inactive) | 3.15 µM (inactive) | 2.25 µM (inactive) | 1.61 µM (inactive) | 1.64 µM (inactive) | 2.16 µM (inactive) | 2.9 µM (inactive) | 1.87 µM (inactive) | 2.55 µM (inactive) | 1.61 µM (inactive) | – | 3.06 µM (inactive) | 2 µM (inactive) | – | 2.39 µM (inactive) | 2.04 µM (inactive)
6 | CCOC(=O)NC(=O)c1cn(C2OC(COC(=O)CCCCCCCCC(=O)OCC3OC(n4cc(C(=O)NC(=O)OCC)c(=O)[nH]c4=O)C4OC(C)(C)OC34)C3OC(C)(C)OC32)c(=O)[nH]c1=O (centres undefined) | > 100 µM (inactive) | – | 77.4 µM (inactive) | 35.8 µM (inactive) | 51.6 µM (inactive) | > 100 µM (inactive) | > 100 µM (inactive) | > 100 µM (inactive) | > 100 µM (inactive) | 39.6 µM (inactive) | > 100 µM (inactive) | 73.8 µM (inactive) | > 100 µM (inactive) | > 100 µM (inactive) | 78 µM (inactive) | > 100 µM (inactive) | – | > 100 µM (inactive) | 57.3 µM (inactive)
7 | O=[N+]([O-])c1ccc(C2c3c(O)nc(O)nc3Oc3nc(O)nc(O)c32)cc1 | > 100 µM (inactive) | > 100 µM (inactive) | > 100 µM (inactive) | > 100 µM (inactive) | > 100 µM (inactive) | – | – | 95.3 µM (inactive) | > 100 µM (inactive) | > 100 µM (inactive) | – | > 100 µM (inactive) | > 100 µM (inactive) | > 100 µM (inactive) | > 100 µM (inactive) | > 100 µM (inactive) | 17.9 µM (inactive) | > 100 µM (inactive) | –
8 | CCOC(=O)NC(=O)c1cn(CCOC(=O)CCCCCCCCC(=O)OCCn2cc(C(=O)NC(=O)OCC)c(=O)[nH]c2=O)c(=O)[nH]c1=O | 23.9 µM (inactive) | – | > 100 µM (inactive) | > 100 µM (inactive) | > 100 µM (inactive) | > 100 µM (inactive) | > 100 µM (inactive) | > 100 µM (inactive) | > 100 µM (inactive) | > 100 µM (inactive) | > 100 µM (inactive) | > 100 µM (inactive) | > 100 µM (inactive) | > 100 µM (inactive) | > 100 µM (inactive) | > 100 µM (inactive) | – | > 100 µM (inactive) | > 100 µM (inactive)
9 | C/N=c1\ss/c(=N\C(=S)N(C)C)n1C | > 100 µM (inactive) | > 100 µM (inactive) | 27.5 µM (inactive) | > 100 µM (inactive) | > 100 µM (inactive) | > 100 µM (inactive) | – | > 100 µM (inactive) | > 100 µM (inactive) | > 100 µM (inactive) | > 100 µM (inactive) | > 100 µM (inactive) | > 100 µM (inactive) | > 100 µM (inactive) | > 100 µM (inactive) | > 100 µM (inactive) | – | 41.1 µM (inactive) | > 100 µM (inactive)
10 | COC1(OC)CC2C(=O)N(Cc3ccccc3)C1CC2S(=O)(=O)c1ccccc1 (centres undefined) | > 100 µM (inactive) | > 100 µM (inactive) | > 100 µM (inactive) | > 100 µM (inactive) | > 100 µM (inactive) | > 100 µM (inactive) | > 100 µM (inactive) | > 100 µM (inactive) | > 100 µM (inactive) | > 100 µM (inactive) | > 100 µM (inactive) | > 100 µM (inactive) | > 100 µM (inactive) | > 100 µM (inactive) | > 100 µM (inactive) | 62.1 µM (inactive) | > 100 µM (inactive) | > 100 µM (inactive) | –
11 | CCOc1ccc(NC2=NC(=O)C(CC(=O)Nc3ccccc3[N+](=O)[O-])S2)cc1 (centres undefined) | > 100 µM (inactive) | > 100 µM (inactive) | > 100 µM (inactive) | > 100 µM (inactive) | > 100 µM (inactive) | > 100 µM (inactive) | > 100 µM (inactive) | 94 µM (inactive) | > 100 µM (inactive) | > 100 µM (inactive) | > 100 µM (inactive) | – | > 100 µM (inactive) | > 100 µM (inactive) | > 100 µM (inactive) | > 100 µM (inactive) | > 100 µM (inactive) | > 100 µM (inactive) | > 100 µM (inactive)
12 | OCc1ccc(C2CC(c3ccco3)=NN2c2ccccc2)o1 (centres undefined) | > 100 µM (inactive) | > 100 µM (inactive) | > 100 µM (inactive) | > 100 µM (inactive) | > 100 µM (inactive) | > 100 µM (inactive) | > 100 µM (inactive) | > 100 µM (inactive) | > 100 µM (inactive) | > 100 µM (inactive) | > 100 µM (inactive) | > 100 µM (inactive) | > 100 µM (inactive) | – | > 100 µM (inactive) | > 100 µM (inactive) | > 100 µM (inactive) | > 100 µM (inactive) | –
13 | Cc1ccc(NC(=S)SCCC(=O)O)cc1 | > 100 µM (inactive) | > 100 µM (inactive) | > 100 µM (inactive) | > 100 µM (inactive) | > 100 µM (inactive) | > 100 µM (inactive) | > 100 µM (inactive) | – | – | > 100 µM (inactive) | – | > 100 µM (inactive) | > 100 µM (inactive) | > 100 µM (inactive) | > 100 µM (inactive) | > 100 µM (inactive) | > 100 µM (inactive) | > 100 µM (inactive) | > 100 µM (inactive)
14 | Cc1cccc(Cl)c1NC(=O)c1cccc([N+](=O)[O-])c1O | 28.1 µM (inactive) | 33.7 µM (inactive) | 22.2 µM (inactive) | 59 µM (inactive) | 38.5 µM (inactive) | 26.8 µM (inactive) | 27.5 µM (inactive) | 25.4 µM (inactive) | 34.5 µM (inactive) | 43.3 µM (inactive) | 27 µM (inactive) | 21.3 µM (inactive) | 31.9 µM (inactive) | 28.4 µM (inactive) | 48.1 µM (inactive) | 19.8 µM (inactive) | 20.4 µM (inactive) | – | 31.7 µM (inactive)
15 | Cc1cc(C)n(-c2ccnc3cc(Cl)ccc23)n1 | > 100 µM (inactive) | > 100 µM (inactive) | > 100 µM (inactive) | > 100 µM (inactive) | > 100 µM (inactive) | > 100 µM (inactive) | > 100 µM (inactive) | > 100 µM (inactive) | > 100 µM (inactive) | > 100 µM (inactive) | > 100 µM (inactive) | > 100 µM (inactive) | > 100 µM (inactive) | > 100 µM (inactive) | > 100 µM (inactive) | 91.6 µM (inactive) | – | > 100 µM (inactive) | > 100 µM (inactive)
16 | COc1cc(C(C#N)NNC(=O)c2ccccc2O)ccc1O (centres undefined) | 2.07 µM (inactive) | 0.843 µM (active) | 2.05 µM (inactive) | 8.32 µM (inactive) | – | 3 µM (inactive) | 2.33 µM (inactive) | 0.887 µM (active) | 1.54 µM (inactive) | 2.26 µM (inactive) | 9.4 µM (inactive) | 3.85 µM (inactive) | 0.873 µM (active) | 6.35 µM (inactive) | 5.83 µM (inactive) | 0.701 µM (active) | 3.14 µM (inactive) | 4.11 µM (inactive) | –
